Test results reported in patent US12478617B2, “Lipidated peptide inhibitors of interleukin-23 receptor” (JANSSEN BIOTECH, INC., priority 2021, dated 2025).
Like-named read-outs stand apart in the source and are kept apart here. Starred links: 1 amine or outer side, 2 acyl side, 3 side chain; linkers in the order of their positions; H or OH if unused. Positions of bridges follow the written chain, without caps; N, C: chain ends. Non-standard residues stand in square brackets, D forms with d. Residues, ends and D or L forms follow the SMILES beside them. Groups on a side chain read outwards from the residue. *: point of attachment. CH3O(CH2CH2O)11CH2CH2CO = COCCOCCOCCOCCOCCOCCOCCOCCOCCOCCOCCOCCC(=O)*; PEG12 = NCCOCCOCCOCCOCCOCCOCCOCCOCCOCCOCCOCCOCCC(=O)O; Trp(7-Me) = Cc1cccc2c(C[C@H](N)C(=O)O)c[nH]c12; C18 diacid = O=C(O)CCCCCCCCCCCCCCCCC(=O)*; γGlu = O=C(O)[C@H](CCC(=O)[*:2])N[*:1]; 2Nal = N[C@@H](Cc1ccc2ccccc2c1)C(=O)O; Palmitoyl = CCCCCCCCCCCCCCCC(=O)*; 3Pal = N[C@@H](Cc1cccnc1)C(=O)O; αMeL = CC(C)C[C@](C)(N)C(=O)O; PEG4 = NCCOCCOCCOCCOCCC(=O)O; Pen = CC(C)(S)[C@H](N)C(=O)O; X3 = COCCOCCOCCOCCC(=O)*; Thp = NC1(C(=O)O)CCOCC1; Sar = CNCC(=O)O

Assays:
[1] = target: IL-23R-expressing DB cells (Homo sapiens, UniProt Q5VWK5); assay: DB Cells IL23R pSTAT3 Cell Assay; format: cell-based; conditions: pSTAT3 (HTRF) in IL-23R-expressing DB cells, 0.5 nM IL-23, 30 minutes; Table 6 'IL-23 Cell Data'
IL-23R-expressing DB cells, sequence (Q5VWK5 24-629 limits assumed): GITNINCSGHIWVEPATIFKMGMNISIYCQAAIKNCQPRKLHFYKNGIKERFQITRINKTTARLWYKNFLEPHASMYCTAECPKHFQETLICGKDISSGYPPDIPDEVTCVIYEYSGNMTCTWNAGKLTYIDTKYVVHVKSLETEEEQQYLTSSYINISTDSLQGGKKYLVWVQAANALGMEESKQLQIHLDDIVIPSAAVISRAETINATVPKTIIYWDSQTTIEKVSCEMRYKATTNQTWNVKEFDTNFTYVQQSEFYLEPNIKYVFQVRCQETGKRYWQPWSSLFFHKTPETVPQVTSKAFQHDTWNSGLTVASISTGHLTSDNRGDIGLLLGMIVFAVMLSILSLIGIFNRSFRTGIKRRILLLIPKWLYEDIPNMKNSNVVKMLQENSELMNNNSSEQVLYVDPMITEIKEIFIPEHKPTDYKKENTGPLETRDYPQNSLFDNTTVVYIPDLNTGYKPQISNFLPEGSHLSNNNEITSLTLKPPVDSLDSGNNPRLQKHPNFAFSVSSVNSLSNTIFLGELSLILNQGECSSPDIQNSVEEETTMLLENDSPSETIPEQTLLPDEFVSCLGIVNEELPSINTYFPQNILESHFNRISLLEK
Protocol: IL-23 is believed to play a central role in supporting and maintaining Th17 differentiation in vivo. This process is thought to be mediated primarily through the Signal Transducer and Activator of Transcription 3 (STAT3), with phosphorylation of STAT3 (to yield pSTAT3) leading to upregulation of RORC and pro-inflammatory IL-17. […] DB cells (ATCC #CRL-2289), cultured in RPMI-1640 medium (Thermo Scientific #11875093) supplemented with 10% FBS, were added at 5 X 10E5 cells/well and incubated for 30 minutes at 37° C. in a 5% CO2 humidified incubator. Changes in phospho-STAT3 levels in the cell lysates were detected using the Cisbio HTRF pSTAT3 (Tyr705) Cellular Assay Kit (Cisbio #62AT3PEH), according to manufacturer's Two Plate Assay protocol. Where not shown or it is marked as “0”, data was not yet determined.

[2] = disulfide bond, 20-membered ring, I2/AcOH, ACN/H2O

**Q.** With `COCCOCCOCCOCCOCCOCCOCCOCCOCCOCCOCCOCCC(=O)N[C@@H]1C(=O)N[C@@H](CC(N)=O)C(=O)N[C@@H]([C@@H](C)O)C(=O)N[C@@H](Cc2c[nH]c3c(C)cccc23)C(=O)N[C@@H](CCCCNC(C)=O)C(=O)N[C@H](C(=O)N[C@@H](Cc2ccccc2)C(=O)N[C@@H](Cc2ccc3ccccc3c2)C(=O)N[C@@](C)(CC(C)C)C(=O)N[C@@H](CC(C)C)C(=O)N[C@@H](CC(N)=O)C(=O)N[C@@H](Cc2cccnc2)C(=O)N(C)CC(N)=O)C(C)(C)SSC1(C)C` [Example 207, [PEG12_OMe]-[Pen]-N-T-[Trp(7-Me)]-[Lys(Ac)]-[Pen]-F-[2Nal]-[aMeLeu]-L-N-[3Pal]-[Sarc]-NH2] ({CH3O(CH2CH2O)11CH2CH2CO}-[Pen]NT[Trp(7-Me)]K(Ac)[Pen]F[2Nal][αMeL]LN[3Pal][Sar]-NH2; disulfide 1-6) as the compound, how does the IC50 [1] read?
**A.** 0.631 nM

**Q.** Which IC50 [1] does the source give for `CCCCCCCCCCCCCCCC(=O)N[C@@H](CCC(=O)NCCOCCOCCOCCOCCOCCOCCOCCOCCOCCOCCOCCOCCC(=O)NCCCC[C@H](NC(=O)C1(NC(=O)[C@H](Cc2ccc3ccccc3c2)NC(=O)[C@H](Cc2ccc(OC)cc2)NC(=O)[C@H]2NC(=O)[C@H](CCCCNC(C)=O)NC(=O)[C@H](Cc3c[nH]c4c(C)cccc34)NC(=O)[C@H]([C@@H](C)O)NC(=O)[C@H](CC(C)C)NC(=O)[C@@H](NC(C)=O)C(C)(C)SSC2(C)C)CCOCC1)C(=O)N[C@@H](CC(C)C)C(=O)N[C@@H](Cc1cccnc1)C(=O)N(C)CC(N)=O)C(=O)O` [Example 243, Ac-[Pen]-L-T-[Trp(7-Me)]-[Lys(Ac)]-[Pen]-[Phe(4-OMe)]-[2Nal]-[THP]-[Lys(PEG12_IsoGlu_Palm)]-L-[3Pal]-[Sarc]-NH2] (Ac-[Pen]LT[Trp(7-Me)]K(Ac)[Pen]Y(Me)[2Nal][Thp]K([PEG12-γGlu-Palmitoyl])L[3Pal][Sar]-NH2; disulfide 1-6) here?
**A.** 4.3 nM

**Q.** With `COc1ccc(C[C@H](NC(=O)[C@H]2NC(=O)[C@H](CCCCNC(=O)CCOCCOCCOCCOCCOCCOCCOCCOCCOCCOCCOCCOCCNC(=O)CC[C@H](NC(=O)CCCCCCCCCCCCCCCCC(=O)O)C(=O)O)NC(=O)[C@H](Cc3c[nH]c4c(C)cccc34)NC(=O)[C@H]([C@@H](C)O)NC(=O)[C@H](CC(C)C)NC(=O)[C@@H](NC(C)=O)C(C)(C)SSC2(C)C)C(=O)N[C@@H](Cc2ccc3ccccc3c2)C(=O)NC2(C(=O)N[C@@H](CC(C)C)C(=O)N[C@@H](CC(C)C)C(=O)N[C@@H](Cc3cccnc3)C(=O)N(C)CC(N)=O)CCOCC2)cc1` [Example 268, Ac-[Pen]-L-T-[Trp(7-Me)]-[Lys(PEG12_IsoGlu_C18_Diacid)]-[Pen]-[Phe(4-OMe)]-[2Nal]-[THP]-L-L-[3Pal]-[Sarc]-NH2] (Ac-[Pen]LT[Trp(7-Me)]K([PEG12-γGlu-C18 diacid])[Pen]Y(Me)[2Nal][Thp]LL[3Pal][Sar]-NH2; disulfide 1-6) as the compound, how does the IC50 [1] read?
**A.** > 10 nM

**Q.** For `COc1ccc(C[C@H](NC(=O)[C@H]2NC(=O)[C@H](CCCCNC(=O)CCOCCOCCOCCOCCNC(=O)CCCCCCCCCCCCCCCCC(=O)O)NC(=O)[C@H](Cc3c[nH]c4c(C)cccc34)NC(=O)[C@H]([C@@H](C)O)NC(=O)[C@H](CC(C)C)NC(=O)[C@@H](NC(C)=O)C(C)(C)SSC2(C)C)C(=O)N[C@@H](Cc2ccc3ccccc3c2)C(=O)NC2(C(=O)N[C@@H](CC(C)C)C(=O)N[C@@H](CC(C)C)C(=O)N[C@@H](Cc3cccnc3)C(=O)N(C)CC(N)=O)CCOCC2)cc1` [Example 262, Ac-[Pen]-L-T-[Trp(7-Me)]-[Lys(PEG4_C18_Diacid)]-[Pen]-[Phe(4-OMe)]-[2Nal]-[THP]-L-L-[3Pal]-[Sarc]-NH2] (Ac-[Pen]LT[Trp(7-Me)]K([PEG4-C18 diacid])[Pen]Y(Me)[2Nal][Thp]LL[3Pal][Sar]-NH2; disulfide 1-6), which IC50 [1] is on record?
**A.** > 10 nM

**Q.** For `COCCOCCOCCOCCOCCOCCOCCOCCOCCOCCOCCOCCC(=O)N[C@@H]1C(=O)N[C@@H](CC(C)C)C(=O)N[C@@H]([C@@H](C)O)C(=O)N[C@@H](Cc2c[nH]c3c(C)cccc23)C(=O)N[C@@H](CCCCNC(C)=O)C(=O)N[C@H](C(=O)N[C@@H](Cc2ccccc2)C(=O)N[C@@H](Cc2ccc3ccccc3c2)C(=O)N[C@@](C)(CC(C)C)C(=O)N[C@@H](CC(C)C)C(=O)N[C@@H](CC(N)=O)C(=O)N[C@@H](Cc2cccnc2)C(=O)N(C)CC(N)=O)C(C)(C)SSC1(C)C` [Example 209, [PEG12_OMe]-[Pen]-L-T-[Trp(7-Me)]-[Lys(Ac)]-[Pen]-F-[2Nal]-[aMeLeu]-L-N-[3Pal]-[Sarc]-NH2] ({CH3O(CH2CH2O)11CH2CH2CO}-[Pen]LT[Trp(7-Me)]K(Ac)[Pen]F[2Nal][αMeL]LN[3Pal][Sar]-NH2; disulfide 1-6), which IC50 [1] is on record?
**A.** 0.07 nM

**Q.** Which IC50 [1] does the source give for `CCCCCCCCCCCCCCCC(=O)N[C@@H](CCC(=O)NCCOCCOCCOCCOCCOCCOCCOCCOCCOCCOCCOCCOCCC(=O)NCCCC[C@](C)(NC(=O)[C@H](Cc1ccc2ccccc2c1)NC(=O)[C@H](Cc1ccc(OC)cc1)NC(=O)[C@H]1NC(=O)[C@H](CCCCNC(C)=O)NC(=O)[C@H](Cc2c[nH]c3c(C)cccc23)NC(=O)[C@H]([C@@H](C)O)NC(=O)[C@H](CC(N)=O)NC(=O)[C@@H](NC(C)=O)C(C)(C)SSC1(C)C)C(=O)N[C@@H](C)C(=O)N[C@@H](C)C(=O)N[C@@H](Cc1cccnc1)C(=O)N(C)CC(N)=O)C(=O)O` [Example 225, Ac-[Pen]-N-T-[Trp(7-Me)]-[Lys(Ac)]-[Pen]-[Phe(4-OMe)]-[2Nal]-[aMeLys(PEG12_IsoGlu_Palm)]-A-A-[3Pal]-[Sarc]-NH2] here?
**A.** 0.811 nM

**Q.** For `COc1ccc(C[C@H](NC(=O)[C@H]2NC(=O)[C@H](CCCCNC(=O)CC[C@H](NC(=O)CCCCCCCCCCCCCCCCC(=O)O)C(=O)O)NC(=O)[C@H](Cc3c[nH]c4c(C)cccc34)NC(=O)[C@H]([C@@H](C)O)NC(=O)[C@H](CC(C)C)NC(=O)[C@@H](NC(C)=O)C(C)(C)SSC2(C)C)C(=O)N[C@@H](Cc2ccc3ccccc3c2)C(=O)NC2(C(=O)N[C@@H](CCCCNC(C)=O)C(=O)N[C@@H](CC(C)C)C(=O)N[C@@H](Cc3cccnc3)C(=O)N(C)CC(N)=O)CCOCC2)cc1` [Example 271, Ac-[Pen]-L-T-[Trp(7-Me)]-[Lys(IsoGlu_C18_Diacid)]-[Pen]-[Phe(4-OMe)]-[2Nal]-[THP]-[Lys(Ac)]-L-[3Pal]-[Sarc]-NH2] (Ac-[Pen]LT[Trp(7-Me)]K([γGlu-C18 diacid])[Pen]Y(Me)[2Nal][Thp]K(Ac)L[3Pal][Sar]-NH2; disulfide 1-6), which IC50 [1] is on record?
**A.** > 10 nM

**Q.** For `COCCOCCOCCOCCC(=O)N[C@@H]1C(=O)N[C@@H](CC(C)C)C(=O)N[C@@H]([C@@H](C)O)C(=O)N[C@@H](Cc2c[nH]c3c(C)cccc23)C(=O)N[C@@H](CCCCNC(C)=O)C(=O)N[C@H](C(=O)N[C@@H](Cc2ccccc2)C(=O)N[C@@H](Cc2ccc3ccccc3c2)C(=O)N[C@@](C)(CC(C)C)C(=O)N[C@@H](CC(C)C)C(=O)N[C@@H](CC(N)=O)C(=O)N[C@@H](Cc2cccnc2)C(=O)N(C)CC(N)=O)C(C)(C)SSC1(C)C` [Example 213, [PEG4_OMe]-[Pen]-L-T-[Trp(7-Me)]-[Lys(Ac)]-[Pen]-F-[2Nal]-[aMeLeu]-L-N-[3Pal]-[Sarc]-NH2] (X3-[Pen]LT[Trp(7-Me)]K(Ac)[Pen]F[2Nal][αMeL]LN[3Pal][Sar]-NH2; disulfide 1-6), which IC50 [1] is on record?
**A.** 0.13 nM

**Q.** For `CC(=O)NCCCC[C@@H]1NC(=O)[C@H](Cc2c[nH]c3c(C)cccc23)NC(=O)[C@H]([C@@H](C)O)NC(=O)[C@H](CC(N)=O)NC(=O)[C@@H](NC(=O)[C@@H](CCCNC(=N)N)NC(=O)COCCOCCNC(=O)COCCOCCNC(=O)CC[C@H](NC(=O)CCCCCCCCCCCCCCCCC(=O)O)C(=O)O)C(C)(C)SSC(C)(C)[C@@H](C(=O)N[C@@H](Cc2ccc(OCCN)cc2)C(=O)N[C@@H](Cc2ccc3ccccc3c2)C(=O)NC2(C(=O)N[C@@H](CCCCNC(C)=O)C(=O)N[C@@H](CC(N)=O)C(=O)N[C@@H](Cc3cccnc3)C(=O)N(C)CC(N)=O)CCOCC2)NC1=O`, which ring closure, yield after HPLC ([2]; from HOC18gEPEG2PEG2-dArg-Pen-Asn-Thr-7MeTrp-Lys(Ac)-Pen-AEF-2Nal-THP-Lys(Ac)-Asn-3Pya-Sar-NH2, 0.361 mM) is on record?
**A.** 22%

**Q.** With `CC(=O)NCCCC[C@@H]1NC(=O)[C@H](Cc2c[nH]c3c(C)cccc23)NC(=O)[C@H]([C@@H](C)O)NC(=O)[C@H](CC(N)=O)NC(=O)[C@@H](NC(=O)[C@@H](CCCNC(=N)N)NC(C)=O)C(C)(C)SSC(C)(C)[C@@H](C(=O)N[C@@H](Cc2ccc(OCCN)cc2)C(=O)N[C@@H](Cc2ccc3ccccc3c2)C(=O)NC2(C(=O)N[C@@H](CCC(=O)O)C(=O)N[C@@H](CC(N)=O)C(=O)N[C@@H](Cc3cccnc3)C(=O)N(C)CC(=O)N[C@@H](CCCCNC(=O)COCCOCCNC(=O)COCCOCCNC(=O)CC[C@H](NC(=O)CCCCCCCCCCCCCCCCC(=O)O)C(=O)O)C(N)=O)CCOCC2)NC1=O` as the compound, how does the ring closure, yield after HPLC ([2]; from Ac-dArg-Pen-Asn-Thr-Trp(7-Me)-Lys(Ac)-Pen-AEF-2Nal-THP-Glu-Asn-3Pya-Sar-Lys(PEG2PEG2gEC18OH)-NH2, 0.345 mM) read?
**A.** 5%

**Q.** With `CC(=O)NCCCC[C@@H]1NC(=O)[C@H](Cc2c[nH]c3c(C)cccc23)NC(=O)[C@H]([C@@H](C)O)NC(=O)[C@H](CC(N)=O)NC(=O)[C@@H](NC(=O)[C@@H](CCCCNC(=O)COCCOCCNC(=O)COCCOCCNC(=O)C[N+](C)(C)CCNC(=O)CC[C@H](NC(=O)CCCCCCCCCCCCCCCCC(=O)O)C(=O)O)NC(C)=O)C(C)(C)SSC(C)(C)[C@@H](C(=O)N[C@@H](Cc2ccc(OCCN)cc2)C(=O)N[C@@H](Cc2ccc3ccccc3c2)C(=O)NC2(C(=O)N[C@@H](CCCCNC(C)=O)C(=O)N[C@@H](CC(N)=O)C(=O)N[C@@H](Cc3cccnc3)C(=O)N(C)CC(N)=O)CCOCC2)NC1=O` as the compound, how does the ring closure, yield after HPLC ([2]; from Ac-dLys(PEG2PEG2SP6gEC18OH)-Pen-Asn-Thr-7MeTrp-Lys(Ac)-Pen-AEF-2Nal-THP-Lys(Ac)-Asn-3Pya-Sar-NH2, 0.343 mM) read?
**A.** 35%
